Assay [1] has as its system panel of 25 biotinylated chemokines (15 CC-class chemokines, 10 CXC-class chemokines). The experiment in a line: Phage-display screen of HD845 NNK mutagenesis library. It is filed as binding, human. Conditions: for peak log 2 E: best mutation at each residue. How it is done: NNK mutagenesis library construction and screening was performed for the HD845 peptide using the methods described in Example 19. […] Following library selection with each chemokine, the enrichment (E) of each peptide was calculated in comparison to the input library, and expressed the enrichment as log 2 E, as this metric is correlated with binding affinity.
A two-pronged strategy was used to identify individual peptides with mutations that improve chemokine binding over the parental peptide HD845. To identify mutations that improve overall chemokine binding affinity, the best performing mutations were selected at each residue by their enhancement of mean log 2 E (FIG. 27A). To add in mutations that improve chemokine binding diversity, the best performing mutations at each residue were identified by their enhancement of peak log 2 E (FIG. 27B).

Assay [2] deals with T1, CXCL9 (Homo sapiens, UniProt Q07325).
T1 construct: purchased Peprotech
T1 sequence (Q07325 23-125): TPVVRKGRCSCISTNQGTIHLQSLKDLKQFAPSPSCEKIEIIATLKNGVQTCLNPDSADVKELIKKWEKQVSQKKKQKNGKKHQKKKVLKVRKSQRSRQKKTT
The experiment in a line: CXCL9-induced activated T-cell migration, transwell assay. It is filed as cell-based. The note with it: HD2 mutant peptides 10 μM, chemokine at EC80. The method, then: FIG. 2. […] BK1.2 is described in (Darlot, 2020). […] Chemokines used are indicated by the name, followed in parenthesis by the supplier code (P in supplier code indicates Peprotech). […] All experiments were performed at EC80 doses of indicated chemokine. Data are shown as box-whisker plots of three technical and three biological replicates. Statistically significant differences (compared to control, indicated by #), using Dunnett's test with correction for multiple comparisons, are indicated by asterisks: ****=P≤0.0001, ***=P≤0.001, **=P≤0.01, *=P≤0.05.
Briefly, cell migration assays use THP1 cells (human monocyte) and primary human buffy coat white cells (consisting of neutrophil granulocytes, monocytes, and lymphocytes), and activated T-cells. THP1 cells and primary monocytes respond to CCL2, CCL3, CCL5, CCL8 and CXCL4, granulocytes to CXCL1 and CXCL8, activated T-cells to CXCL9/10/11. Assays are performed in 96-well Boyden chambers, and migrated cells counted and characterized using and ATTUNE Flow Cytometer as described. Triplicate assays are performed at the EC80 dose of each chemokine at 10 μM peptide concentration.
(§1) The J:CXCR1 cell line was generated by transfecting Jurkat cells by electroporation with PvuI-linearized plasmid D1398 and selecting with blasticidin (Sigma-Aldrich, Cat #203350, […]). […] J:CXCR1 cells were cultured in RPMI-1640 media (Gibco), supplemented with 10% FBS and 5 mM L-Glutamine with blasticidin. For J:CXCR1 migration assays, 300,000 cells/well were added to the top chamber of a 3 μm Transwell insert (Corning) in 50 μL of migration media (RPMI-1640, 0.5% FBS, 4 mM L-Glutamine, 0.05% DMSO). The bottom chamber contained 150 μL of chemokine, with or without peptide. Cells were migrated at 37° C. in 5% CO2 for 4 hours. The plate was incubated on a shaking platform for 10 minutes, 800 rpm, at 37° C., and 150 μL from the bottom of the plate transferred into a U-bottom plate containing 50 μL of migration media. Cell counts were determined by Attune NxT Flow Cytometer Plate Reader (ThermoFisher), based on cell size parameters FSC-H/SSC-H. Experiments were performed in 3 technical and 3 biological replicates. THP-1 migration assays were carried out using methods known in the art. Activated T-cell assays were carried out using methods known in the art, with the following modifications in the isolation process. Peripheral blood cells were obtained from leucocyte cones (NHS Blood Transfusion Services), following which, T-cells were isolated using two rounds of human CD8+ T-cell isolation kit (480011, BioLegend). At day 10 after activation, T-cells were frozen at 20 E6 cells/ml in TexMACS medium supplemented with 10% DMSO (D2650, Sigma) in liquid nitrogen. Prior to use, activated T-cells were recovered for 24 hours in TexMACs medium at 0.3 E6 cells/ml and incubated at 37° C. in 5% CO2. Chemokine sources are described in Supplementary information Table 3. Statistical significances between control experimental groups was evaluated using Dunnett's test. IC50 experiments were performed at the EC80 dose of chemokine. EC80 was calculated by fitting a chemokine dose-response curve with 3 parameters (fixing the top to 100%). IC50 was calculated by fitting an inhibitor response curve with 4 parameters.

Assay [3] deals with panel of 24 biotinylated chemokines. The experiment in a line: Phage-display screen of HD2 NNK saturation mutagenesis library. It is filed as binding, human. The note with it: for Chemokines Bound log2E 1-5 / Chemokines Bound log2E > 5: HD2 saturation mutants, chemokines on streptavidin beads, UniProt entry names. From the text:
FIG. 7. Exemplar results from phage display screens using saturation mutagenesis. A phage-display library was constructed using the HD2 sequence, replacing each residue encoding codon with the degenerate sequence NNK. The 16 degenerate sequences (which also encoded the parental HD2 sequence) were pooled and cloned into display phage. […] Exemplar peptides were selected such that log 2 E for at least one chemokine was greater than 5, and log 2 E for binding to control (CO5, was less than zero). […] The fold enrichment of parental HD2 is also indicated.
A phage-display library was constructed using the HD2 sequence, replacing each residue encoding codon with the degenerate sequence NNK. The 16 degenerate sequences (which also encoded the parental HD2 sequence) were pooled and cloned into display phage. […] Exemplar peptides were selected such that log 2 E for at least one chemokine was greater than 5, and log 2 E for binding to control (CO5, was less than zero). […] The fold enrichment of parental HD2 is also indicated.
A molecular level understanding of binding mechanism is needed for development of peptides as therapeutics and is usually obtained from structural analyses. As HD2 binds many chemokines this becomes a challenging task, and we explored if we could elucidate this using phage display mutagenesis. The role of each residue in HD2 for binding was examined in phage-display. A library of HD2 mutations that had NNK substituted at each residue and performed phage-display selection against a panel of 24 biotinylated chemokines, in parallel, as described in Example 7. This strategy allowed us to evaluate the impact not only of Ala substitutions, but also conservative, hydrophilic and hydrophobic substitutions, and compare with binding of parental HD2 which is also included in the library. Ala substitution removes side-chains beyond the β-carbon and can be used to infer the role of side-chain functional groups without affecting conformational flexibility of the backbone. […] These residues are within the two motifs identified previously. Other notable residues identified were Y8 and P10. We next judged the impact of Ala mutation by calculating the change in log 2 E (Δlog 2 E) between the mutant and parental HD2. A positive value of Δlog 2 E indicates increased binding, and a negative value decreased binding compared to parental HD2. […] As may be seen, the log 2 E for the parental HD2 was ~0 in these analyses indicating lack of enrichment.
Oligonucleotide pools were amplified using primers: oligo_fwd: 5′-[…] and oligo_rev2: 5′-tcgtcaccctcggcgcctcctcoggatcctccacc. Oligonucleotide PCR products were cloned into plasmid prSTOP4Nsi using NEB Builder HiFi Assembly following instructions of the manufacturer. The vector pool was used to transform electrocompetent Invitrogen ElectroMAX™ DH5α-E™ cells. Plasmid DNA was harvested by MaxiPrep (GeneJet Plasmid Maxiprep Kit) and was transformed into SS320 phage display electrocompetent cells (Lucigen), following the manufacturer's protocol, resuspended in 950 μL recovery media for each electroporation, transferred to 50 mL Falcon tubes, 100 μL 1011 CFU/mL M13KO7 helper phage (NEB) added and shaken at 37° C., 220 RPM for 1 h. 1 mL recovery culture was added to 2YT medium containing +50 ug/mL carbenicillin and 25 ug/mL kanamycin, and grown overnight at 37C, 220 rpm. Phage was precipitated from the culture supernatant by adding 22.5 mL of supernatant to 4.5 mL 20% PEG 8000/2.5 M NaCl, incubating on ice for 30 min, and centrifuging at 10,000 RPM, 4° C. for 10 min, and resuspending phage in 1 ml of PBT, followed by centrifugation at 13000 RPM, 4° C., for 10 min. […]

Assay [4] concerns the target T2, CCL21 (Homo sapiens, UniProt O00585).
T2 sequence (O00585 24-134): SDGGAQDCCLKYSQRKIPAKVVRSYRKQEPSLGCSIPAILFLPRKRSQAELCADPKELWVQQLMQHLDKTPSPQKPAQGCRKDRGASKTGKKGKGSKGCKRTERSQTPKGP
The experiment in a line: CCL21-induced cell migration assay. Format: cell-based. The note with it: HD2 mutant peptides 10 μM, chemokine at EC80. The method, then:
FIGS. 24 and 25. Effect of exemplar mutant HD2 peptides on chemotaxis. Box-whisker plots showing the effect of the exemplar mutant HD2 peptides on cell migration induced by indicated human chemokines. All experiments were performed as at least three technical and between one to three biological replicates, and individual data points are indicated. […] Chemokine and cell type names are indicated. HD2SCR is a scrambled version of HD2 used as negative control. All peptides were at 10 μM final concentration and chemokines at EC80 doses. Statistically significant differences (compared to control, coloured blue), using Dunnett's test with correction for multiple comparisons, are indicated by asterisks: ****=P≤0.0001, ***=P≤0.001, **=P≤0.01, *=P≤0.05.
as §1
Migration assays using THP1, activated T-cell (ATC) and J:CXCR1 (Jurkat cells stably transfected with CXCR1 receptor) were performed as described previously. IC50 experiments were performed at the EC80 dose of chemokine. EC80 was calculated by fitting a chemokine dose-response curve with 3 parameters (fixing the top to 100%). IC50 was calculated by fitting an inhibitor response curve with 4 parameters. R-packages used were ggupset_0.3.0, DescTools_0.99.44, and drc_3.0-1.

“Also recorded” adds a separate entry of the source.

Regarding EDEDYEDFFAPVTCYF [K10A], the “peak log 2 E” value in assay [1] is “highest peak log 2 E at that residue”. Further, the “mean log 2 E compared to parental HD845” value in assay [1] (over CC chemokines) and in assay [1] (over all chemokines) was “significant improvement” in each case.

On to EDEDYFDFFKPVTCYF [E6F], for which, in assay [1] (over CC chemokines), the “mean log 2 E compared to parental HD845” value is “significant improvement”.

Take EDEDYWDFFKPVTCYF [E6W]: the “peak log 2 E” value in assay [1] is on record as “highest peak log 2 E at that residue”. Besides, the “mean log 2 E compared to parental HD845” value in assay [1] (over XC chemokines) and in assay [1] (over all chemokines) was “significant improvement” in each case.

As for EEDDYTAYAPITCYFT [HD2_I11], the “chemotaxis compared with the parental HD2 peptide” value in assay [2] and in assay [4] was “significant reduction in chemotaxis” each time. Besides, the “Chemokines Bound log2E 1-5” value in assay [3] is “CCL1, CCL11, CCL17, CCL18,; also recorded: CCL19, CCL2, CCL22, CCL28,; also recorded: CCL3, CCL4, CCL5, CCL8, X3CL1,; also recorded: CXL10, CXL11, SDF1, CXL13, IL8”. Besides, in assay [3], the “Chemokines Bound log2E > 5” value was “CCL15”. Besides, the “mean log 2 E compared to parental HD2” value in assay [3] (over CC chemokines) and in assay [3] (over all chemokines) was “significant improvement” each time.

Turning to EEDDYTDYAPLTCYFT [HD2_D7], in assay [3], the “Chemokines Bound log2E 1-5” value is “CCL1, CCL11, CCL15, CCL17, and CCL18, CCL19, CCL2, CCL22, and CCL28, CCL3, CCL4, CCL5, CCL8, and X3CL1, CXL10, CXL11, CXL14, and IL8”; the “Chemokines Bound log2E > 5” value is on record as “SDF1, CXL13”. Further, the “mean log 2 E compared to parental HD2” value in assay [3] (over all chemokines) is “significant improvement”.

Turning to EEDDYTEYAPLTCYFT [HD2_E7], in assay [3], the “Chemokines Bound log2E 1-5” value is listed as “CCL1, CCL11, CCL15, CCL18,; also recorded: CCL2, CCL22, CCL28, CCL3,; also recorded: CCL4, CCL5, CCL8, X3CL1,; also recorded: CXL10, CXL14, IL8” and the “Chemokines Bound log2E > 5” value was “SDF1, CXL13”.

For the sequence EEDDYTWYAPLTCYFT [A7W], in assay [3] (over XC (CXC/CX3C) chemokines), the “mean log 2 E compared to parental HD2” value is on record as “significant improvement”.

Take EEEDYTAYAPLTCYFT [HD2_E3]: in assay [3], the “Chemokines Bound log2E 1-5” value is “CCL8, X3CL1; also recorded: CCL1, CCL11, CCL15, CCL17,; also recorded: CCL18, CCL22, CCL4, CCL5,” and the “Chemokines Bound log2E > 5” value is reported as “CCL3”.

For the origin of these results see patent publication US20260234188A1, “CHEMOKINE-BINDING PEPTIDES” (Oxford University Innovation Limited, priority 2022, published 2026).
